Source: patent US20090099177A1, “PYRIDYL COMPOUNDS” (priority 2006, published 2009)
Counter-ions that a name gives are not always drawn.

Experiments:
[1] = molecular target: T1, human prostanoid EP1 receptor (Homo sapiens, UniProt P34995); assay: Binding assay for the human prostanoid EP1 receptor (competition with [3H]-PGE2); conditions: [3H]-PGE2 competition, human EP1, CHO-K1 membranes; averages of a number of experiments; read-out: pIC50 value (converted)
T1 construct: expressed in transfected cells; host or cells: CHO-K1 (membrane fraction)
T1 sequence (P34995 1-402): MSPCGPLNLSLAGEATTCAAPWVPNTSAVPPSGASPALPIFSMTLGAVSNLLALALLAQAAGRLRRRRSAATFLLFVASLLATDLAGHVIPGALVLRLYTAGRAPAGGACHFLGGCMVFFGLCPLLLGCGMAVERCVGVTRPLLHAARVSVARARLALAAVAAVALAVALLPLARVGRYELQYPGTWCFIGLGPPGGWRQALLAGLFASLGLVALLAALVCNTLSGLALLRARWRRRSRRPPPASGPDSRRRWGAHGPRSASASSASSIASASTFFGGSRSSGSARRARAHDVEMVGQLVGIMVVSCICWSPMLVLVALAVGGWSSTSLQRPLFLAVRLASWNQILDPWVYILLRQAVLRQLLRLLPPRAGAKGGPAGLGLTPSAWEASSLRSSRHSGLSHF
Procedure: Competition assay using [^3H]-PGE2.
Compound potencies are determined using a radioligand binding assay. In this assay compound potencies are determined from their ability to compete with tritiated prostaglandin E2 ([^3H]-PGE2) for binding to the human EP1 receptor.
This assay utilises Chinese hamster ovary-K1 (CHO-K1) cells into which a stable vector containing the EP1 cDNA has previously been transfected. Cells are cultured in suitable flasks containing culture medium such as DMEM:F-12 supplemented with 10% v/v foetal calf serum, 2 mM L-glutamine, 0.25 mg/ml geneticin, 10 μg/ml puromycin and 10 μM indomethacin.
Cells are detached from the culture flasks by incubation in calcium and magnesium free phosphate buffered saline containing 1 mM disodium ethylenediaminetetraacetic acid (Na2EDTA) and 10 μM indomethacin for 5 min. The cells are isolated by centrifugation at 250×g for 5mins and suspended in an ice cold buffer such as 50 mM Tris, 1 mM Na2EDTA, 140 mM NaCl, 10 μM indomethacin (pH 7.4). The cells are homogenised using a Polytron tissue disrupter (2×10 s burst at full setting), centrifuged at 48,000×g for 20mins and the pellet containing the membrane fraction is washed (optional) three times by suspension and centrifugation at 48,000×g for 20mins. The final membrane pellet is suspended in an assay buffer such as 10 mM 2-[N-morpholino]ethanesulphonic acid, 1 mM Na2EDTA, 10 mM MgCl2 (pH 6). Aliquots are frozen at −80° C. until required.
For the binding assay the cell membranes, competing compounds and [^3H]-PGE2 (3 nM final assay concentration) are incubated in a final volume of 100 μl for 30 min at 30° C. All reagents are prepared in assay buffer. Reactions are terminated by rapid vacuum filtration over GF/B filters using a Brandell cell harvester. The filters are washed with ice cold assay buffer, dried and the radioactivity retained on the filters is measured by liquid scintillation counting in Packard TopCount scintillation counter.
The data are analysed using non linear curve fitting techniques to determine the concentration of compound producing 50% inhibition of specific binding (IC50).

human EP1 receptor = molecular target: T2, human EP1 receptor (Homo sapiens, UniProt P34995); assay: human EP1 calcium mobilisation assay; type: cell-based; conditions: for Ki: human EP1, CHO-K1 cells, antagonism of PGE2, averages of a number of experiments, read-out: functional pKi value (converted)
T2 construct: expressed in transfected cells; host or cells: CHO-K1
T2 sequence (P34995 1-402): T1 sequence (P34995 1-402)
Procedure: Briefly, the antagonist properties of compounds are assessed by their ability to inhibit the mobilisation of intracellular calcium ([Ca^2+]i) in response to activation of EP1 or EP3 receptors by the natural agonist hormone prostaglandin E2 (PGE2). Increasing concentrations of antagonist reduce the amount of calcium that a given concentration of PGE2 can mobilise. The net effect is to displace the PGE2 concentration-effect curve to higher concentrations of PGE2. The amount of calcium produced is assessed using a calcium-sensitive fluorescent dye such as Fluo-4, AM and a suitable instrument such as a Fluorimetric Imaging Plate Reader (FLIPR). Increasing amounts of [Ca^2+]i produced by receptor activation increase the amount of fluorescence produced by the dye and give rise to an increasing signal. The signal may be detected using the FLIPR instrument and the data generated may be analysed with suitable curve-fitting software.
The human EP1 or EP3 calcium mobilisation assay (hereafter referred to as ‘the calcium assay’) utilises Chinese hamster ovary-K1 (CHO-K1) cells into which a stable (pCIN; BioTechniques 20 (1996): 102-110) vector containing either EP1 or EP3 cDNA has previously been transfected. Cells are cultured in suitable flasks containing culture medium such as DMEM:F-12 supplemented with 10% v/v foetal calf serum, 2 mM L-glutamine, 0.25 mg/ml geneticin, 100 μM flurbiprofen and 10 μg/ml puromycin.
For assay, cells are harvested using a proprietary reagent that dislodges cells such as Versene. Cells are re-suspended in a suitable quantity of fresh culture media for introduction into a 384-well plate. Following incubation for 24 hours at 37° C. the culture media is replaced with a medium containing Fluo-4 and the detergent pluronic acid, and a further incubation takes place. Concentrations of compounds are then added to the plate in order to construct concentration-effect curves. This may be performed on the FLIPR in order to assess the agonist properties of the compounds. Concentrations of PGE2 are then added to the plate in order to assess the antagonist properties of the compounds.
The data so generated may be analysed by means of a computerised curve-fitting routine. The concentration of compound that elicits a half-maximal inhibition of the calcium mobilisation induced by PGE2 (pIC50) may then be estimated.

Row | SMILES | IC50 [1] [nM] | Ki (human EP1 receptor) [nM] | IC50 (human EP1 receptor; human EP1 calcium mobilisation assay, read-out: pIC50 values (converted)) [nM]
1 | O=C(Nc1cccc(Cc2cc(Cl)ccc2OCc2ccccc2)n1)C1CCCCC1 [Example 4, N-[6-({5-Chloro-2-[(phenylmethyl)oxy]phenyl}methyl)-2-pyridinyl]cyclohexanecarboxamide] | ≤ 100 | ≤ 316 | –
2 | CC(C)(C)CC(=O)Nc1cccc(Cc2cc(Cl)ccc2OCc2ccccc2)n1 [Example 5, N-[6-({5-Chloro-2-[(phenylmethyl)oxy]phenyl}methyl)-2-pyridinyl]-3,3-dimethylbutanamide] | ≤ 100 | ≤ 316 | –
3 | O=C(Nc1ccc(CO)cc1)c1cccc(Cc2cc(Cl)ccc2OCc2ccc(Cl)cc2F)n1 [Example 13, 6-[(5-Chloro-2-{[(4-chloro-2-fluorophenyl)methyl]oxy}phenyl)methyl]-N-[4-(hydroxymethyl)phenyl]-2-pyridinecarboxamide] | ≤ 100 | ≤ 10000 | –
4 | Fc1cc(Cl)ccc1COc1ccc(Cl)cc1Cc1cccc(-c2nc3cncnc3[nH]2)n1 [Example 20, 8-{6-[(5-Chloro-2-{[(4-chloro-2-fluorophenyl)methyl]oxy}phenyl)methyl]-2-pyridinyl}-1H-purinehydrochloride] | ≤ 100 | ≤ 316 | –
5 | Clc1ccc(OCc2ccccc2)c(Cc2cccc(-c3nc4ccc(N5CCOCC5)cc4[nH]3)n2)c1 [Example 28, 2-[6-({5-Chloro-2-[(phenylmethyl)oxy]phenyl}methyl)-2-pyridinyl]-5-(4-morpholinyl)-1H-benzimidazolehydrochloride] | ≤ 100 | ≤ 316 | –
6 | Clc1ccc(OCc2ccccc2)c(Cc2cccc(-c3nc4ncccc4[nH]3)n2)c1 [Example 30, 2-[6-({5-Chloro-2-[(phenylmethyl)oxy]phenyl}methyl)-2-pyridinyl]-1H-imidazo[4,5-b]pyridinehydrochloride] | ≤ 100 | ≤ 316 | –
7 | COc1ccc2[nH]c(-c3cccc(Cc4cc(Cl)ccc4OCc4ccccc4)n3)nc2c1 [Example 31, 2-[6-({5-Chloro-2-[(phenylmethyl)oxy]phenyl}methyl)-2-pyridinyl]-5-(methyloxy)-1H-benzimidazolehydrochloride] | ≤ 100 | ≤ 316 | –
8 | CN(CCC#N)Cc1ccc(NC(=O)c2cccc(Cc3cc(Cl)ccc3OCc3ccc(Cl)cc3F)n2)cc1 [Example 57, 6-[(5-Chloro-2-{[(4-chloro-2-fluorophenyl)methyl]oxy}phenyl)methyl]-N-(4-{[(2-cyanoethyl)(methyl)amino]methyl}phenyl)-2-pyridinecarboxamide] | ≤ 100 | ≤ 10000 | –
9 | CN(C)Cc1ccc2nc(-c3cccc(Cc4cc(Cl)ccc4OCc4ccc(Cl)cc4F)n3)[nH]c2c1 [Example 58, [(2-{6-[(5-Chloro-2-{[(4-chloro-2-fluorophenyl)methyl]oxy}phenyl)methyl]-2-pyridinyl}-1H-benzimidazol-5-yl)methyl]dimethylamine Hydrochloride] | ≤ 100 | – | > 10000
10 | CC(C)(C)OC(=O)Nc1cccc(Cc2cc(Cl)ccc2OCc2ccc(Cl)cc2F)n1 [Example 61, 1,1-Dimethylethyl {6-[(5-chloro-2-{[(4-chloro-2-fluorophenyl)methyl]oxy}phenyl)methyl]-2-pyridinyl}carbamate Hydrochloride] | ≤ 100 | ≤ 316 | –
11 | CC(C)COc1ccc(Cl)cc1Cc1cccc(NC(=O)c2ccc(CO)cc2)n1 [Example 62, N-[6-({5-Chloro-2-[(2-methylpropyl)oxy]phenyl}methyl)-2-pyridinyl]-4-(hydroxymethyl)benzamide] | ≤ 100 | ≤ 10000 | –

Other lines, results leading:

Row | IC50 [1] [nM] | Ki (human EP1 receptor) [nM] | IC50 (human EP1 receptor; human EP1 calcium mobilisation assay, read-out: pIC50 values (converted)) [nM] | SMILES
12 | ≤ 100 | ≤ 316 | – | Fc1cc(Cl)ccc1COc1ccc(Cl)cc1Cc1cccc(-c2nc3ccccc3[nH]2)n1 [Example 19, 2-{6-[(5-Chloro-2-[([(4-chloro-2-fluorophenyl)methyl]oxy}phenyl)methyl]-2-pyridinyl]-1H-benzimidazole Hydrochloride]
13 | ≤ 100 | ≤ 316 | – | CC(C)COc1ccc(Cl)cc1Cc1cccc(-c2nc3nccnc3[nH]2)n1 [Example 22, 2-[6-({5-Chloro-2-[(2-methylpropyl)oxy]phenyl}methyl)-2-pyridinyl]-1H-imidazo[4,5-b]pyrazine hydrochloride]
14 | ≤ 100 | ≤ 10000 | – | CN(C)c1ccc2nc(-c3cccc(Cc4cc(Cl)ccc4OCc4ccccc4)n3)[nH]c2c1 [Example 27, 2-[6-({5-Chloro-2-[(phenylmethyl)oxy]phenyl}methyl)-2-pyridinyl]-N,N-dimethyl-1H-benzimidazol-5-aminehydrochloride]
15 | ≤ 100 | ≤ 10000 | – | Cc1ccc2[nH]c(-c3cccc(Cc4cc(Cl)ccc4OCc4ccccc4)n3)nc2c1 [Example 29, 2-[6-({5-Chloro-2-[(phenylmethyl)oxy]phenyl}methyl)-2-pyridinyl]-5-methyl-1H-benzimidazole Hydrochloride]
16 | ≤ 100 | ≤ 316 | – | Clc1ccc(OCc2ccccc2)c(Cc2cccc(-c3nc4ccccc4[nH]3)n2)c1 [Example 34, 2-[6-({5-Chloro-2-[(phenylmethyl)oxy]phenyl}methyl)-2-pyridinyl]-1H-benzimidazole hydrochloride]
17 | ≤ 100 | ≤ 316 | – | Clc1ccc(OCc2ccccc2)c(Cc2cccc(-c3nc4cc(Cl)ccc4[nH]3)n2)c1 [Example 35, 5-Chloro-2-[6-({5-Chloro-2-[(phenylmethyl)oxy]phenyl}methyl)-2-pyridinyl]-1H-benzimidazole hydrochloride]
18 | ≤ 100 | ≤ 316 | – | Fc1ccc2[nH]c(-c3cccc(Cc4cc(Cl)ccc4OCc4ccccc4)n3)nc2c1 [Example 36, 2-[6-({5-Chloro-2-[(phenylmethyl)oxy]phenyl}methyl)-2-pyridinyl]-5-fluoro-1H-benzimidazolehydrochloride]
19 | ≤ 100 | ≤ 316 | – | CC(C)COc1ccc(Cl)cc1Cc1cccc(-c2nc3ccccc3[nH]2)n1 [Example 44, 2-[6-({5-Chloro-2-[(2-methylpropyl)oxy]phenyl}methyl)-2-pyridinyl]-1H-benzimidazole]
20 | ≤ 100 | ≤ 316 | – | CNCc1ccc2nc(-c3cccc(Cc4cc(Cl)ccc4OCC(C)C)n3)[nH]c2c1 [Example 52, ({2-[6-({5-Chloro-2-[(2-methylpropyl)oxy]phenyl}methyl)-2-pyridinyl]-1H-benzimidazol-5-yl}methyl)methylaminehydrochloride]
